# In patent US20220105051A1, “COMPOUNDS FOR INCREASING MHC-I EXPRESSION AND MODULATING HISTONE DEACETYLASE ACTIVITY” (Cava Healthcare Inc., priority 2019, published 2022):
# “Also recorded” adds a separate entry of the source.
# Tests used:
# A9 cell line = experiment: Cytotoxicity / live cell frequency in A9 cells (flow cytometry, 7AAD); format: cell-based, murine; conditions: for cytotoxicity: 48 hours after treatment
# Description: A9 and TC-1 cell lines were trypsinized (0.05%, Gibco), washed twice with PBS (Gibco), and stained with allophycocyanin (APC) conjugated anti-mouse H-2K^b antibody (1:200, Biolegend) suspended in 150 μL of FACS buffer (PBS+2% FBS) for 20 minutes at 4° C. Cells were washed twice with PBS and re-suspended in 200 μL FACs buffer containing 1 μL of 7-aminoactinomycin (7AAD) viability stain (Biolegend). Flow cytometry was performed on the LSRII (BDBiosciences) and analysis was done using FlowJo (Flow cytometry Analysis Software).
# The marine extract library was provided by Dr. Raymond J. Andersen (UBC). The marine invertebrate specimens were collected by SCUBA diving at a 40 metre depth from regions of high marine biodiversity in Papua New Guinea, Indonesia, Thailand, Sri Lanka, Dominica, Brazil, British Columbia, South Africa, and Norway 35. Previously curcuphenol was identified as the active component in one of the marine extracts showing induction of the APM, and since then two new generations of curcuphenol analogues were synthesized in the lab of Dr. Raymond Anderson. To evaluate the ability of these compounds to induce MHC-I surface expression, A9 cells were plated in 6 well plates at 10^5 cells/well and incubated for 24 hours at 37° C. in a 5% CO2 humidified atmosphere. After 24 hours the medium was removed and replaced with medium containing varying concentration of synthesized compounds (6.7 μg/mL, 20 μg/mL, 60 μg/mL). […] Following treatment, cells were incubated for 48 hours at 37° C. with 5% CO2 and humidified atmosphere. After incubation cells were subjected to flow cytometry.
# SIRT1 = target: T1, SIRT1 (Homo sapiens, UniProt Q96EB6); experiment: Individualized HDAC assay, SIRT1; format: biochemical; conditions: purified enzyme, 5 to 0.02 μM
# T1 construct: purchased BPS Biosciences
# T1 sequence (Q96EB6 1-747): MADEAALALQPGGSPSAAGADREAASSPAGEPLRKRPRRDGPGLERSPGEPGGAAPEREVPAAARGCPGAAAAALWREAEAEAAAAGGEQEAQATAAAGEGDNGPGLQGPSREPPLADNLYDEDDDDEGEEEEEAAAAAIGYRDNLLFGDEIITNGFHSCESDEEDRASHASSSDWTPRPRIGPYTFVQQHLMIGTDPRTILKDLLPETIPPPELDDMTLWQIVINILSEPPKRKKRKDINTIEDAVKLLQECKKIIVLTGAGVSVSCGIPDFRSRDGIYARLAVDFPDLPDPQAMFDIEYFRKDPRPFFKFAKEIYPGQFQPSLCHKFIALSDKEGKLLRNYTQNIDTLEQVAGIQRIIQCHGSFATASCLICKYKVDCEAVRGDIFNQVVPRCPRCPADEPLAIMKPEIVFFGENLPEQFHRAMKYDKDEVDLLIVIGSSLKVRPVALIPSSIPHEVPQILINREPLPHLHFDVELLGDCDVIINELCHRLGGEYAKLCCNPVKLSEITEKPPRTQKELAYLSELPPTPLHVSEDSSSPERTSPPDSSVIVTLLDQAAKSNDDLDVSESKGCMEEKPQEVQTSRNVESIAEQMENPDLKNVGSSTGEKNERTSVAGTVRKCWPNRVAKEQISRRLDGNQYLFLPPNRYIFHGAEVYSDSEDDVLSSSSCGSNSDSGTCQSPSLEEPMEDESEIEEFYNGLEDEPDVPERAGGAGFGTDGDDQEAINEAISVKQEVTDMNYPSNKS
# Description: The activity of the curcuphenol analogues was assessed with purified HDAC enzymes from all classes I, II, and IV, as well as a select member of HDAC class III (SIRT1). HDACs 1-9 and SIRT1 were evaluated using HDAC Fluorogenic Assay Kits (BPS Biosciences). All assays were completed in black-sided clear-bottom 96 well plates (PerkinElmer), and all treatments were plated in triplicates. Treatment started at 5 μM and was two-fold diluted to a concentration 0.02 μM. The assays were measured using the Synergy HI hybrid reader (BioTek) and Gen5 software (BioTek), excitation was set to 360 nm and detection was measured at 450 nm with a gain of 100. Alternatively HDAC 10 and 11 (BPS Biosciences) were optimized for HDAC concentration using the HDAC-Glo™ I/II Assay and Screening System (Promega). Following optimization each HDAC was run following the Promega protocol in black-sided clear-bottomed 96 well plates in triplicates with same treatments listed above (PerkinElmer). Luminescence was read 30 minutes after HDAC-Glo™I/II reagent was added using the Synergy HI hybrid reader (BioTek) and Gen5 software (Bio-Tek). […] To calculate percent activity, the average of blank wells was subtracted from all treatment groups. The relative mean of activity of the HDAC being measured was determined and all wells that received treatment were divided this average, to give a percentage of activity.
# To evaluate the effect of the compounds on specific HDACs, their activity was assessed with purified HDAC enzymes from all classes I, II, and IV, as well as a select member of HDAC class III (SIRT1). HDACs 1-9 and SIRT1 were evaluated using HDAC Fluorogenic Assay Kits (BPS Biosciences) following the manufacturer's recommendations. Compound treatment started at 5 μM and was two-fold diluted to a concentration 0.02 μM. Alternatively, HDAC 10 and 11 assays (BPS Biosciences) were optimized to be used with the HDAC-Glo™ I/II Assay and Screening System (Promega). The assays were measured using the Synergy HI hybrid reader (BioTek) and Gen5 software (Bio-Tek). […] To calculate the fold change in HDAC activity, the values from each treated well were divided by the relative mean of activity of the specific HDAC being measured.
structure (smiles),measurement,setting,value
"CC(C)=CCC[C@H](C)c1ccc(C)cc1O [Curcuphenol, curcuphenol]",cytotoxicity,A9 cell line,low cellular toxicity
same,live cell frequency,"A9 cell line; 48 hours, 0.128 μmol",drops substantially
CC(C)=CCCCc1ccc(C)cc1O [P02-113],cytotoxicity,A9 cell line,low cytotoxicity; also recorded: lowest cytotoxicity
same,SIRT1 activity,SIRT1,did not demonstrate a change in activity; also recorded: no effect was observed; also recorded: no change in activity
COc1ccc(C(C)CCC=C(C)C)c(O)c1 (centres unmarked) [P03-97-1],cytotoxicity,A9 cell line,low cytotoxicity; also recorded: lowest cytotoxicity
same,SIRT1 activity,SIRT1,did not demonstrate a change in activity
same,SIRT1 activity,SIRT1; listed as P03-7-1,no change in activity
same,SIRT1 activity,SIRT1; listed as PO-3-97-1,no effect was observed
